Results as given in paper PMC9959553, “Promising Antifungal Molecules against Mucormycosis Agents Identified from Pandemic Response Box®: In Vitro and In Silico Analyses” (Journal of Fungi, 2023).

System: R. oryzae UCP1295
Experiment: Screening of the Pandemic Response Box library at 5 µM
Format: cell-based, Rhizopus oryzae
Conditions: 48 h, Table S1, mean of the four values
Method: Rhizopus oryzae UCP is the most prevalent Mucorales species in human infections and was used as a reference strain to screen the Pandemic Response Box® library. Screening was performed according to Rollin-Pinheiro and colleagues. Each compound was diluted in RPMI 1640 medium (Sigma Chemical Co., St. Louis, MO, USA), supplemented with 2% glucose and buffered with 3-(N-morpholino) propanesulfonic acid (MOPS) (Sigma Chemical Co., St. Louis, MO, USA) (0.165 mol/L, pH 7.2, from here on referred to as ‘supplemented RPMI’) to reach 5 μM in 96-well microtiter plates. Posaconazole (5 μM) and supplemented RPMI containing 1% DMSO were used as controls (both from Sigma Chemical Co., St. Louis, MO, USA). Conidia (2 × 10^5/mL) were added and incubated for 48 h at 37 °C in a 5% CO2 atmosphere. […] An inhibition of at least 60% was defined as the cut-off to select the promising drugs with antifungal activity against the Rhizopus species.

| SMILES | % of growth inhibition, Mean |
| --- | --- |
| O=C(Nc1nnc(-c2ccc(Cl)cc2)o1)c1nc2ccccc2s1 [MMV102833] | 1.7% |
| CC(C)Nc1ncnc2c1cnn2-c1ccc(Cl)cc1 [MMV108465] | -32.3% |
| CCOc1ccc(C(=O)NCCc2ccccc2)cc1 [MMV124656] | -37.8% |
| Clc1cccc(-c2nnc(-c3ccccc3)o2)c1 [MMV141011] | -16.6% |
| NC1C2CC3CC(C2)CC1C3 (centres unmarked) [MMV180402] | 3.0% |
| O=C(CC1Sc2ncnn2C1=O)Nc1ccc(Br)cc1 (centres unmarked) [MMV214956] | -17.9% |
| O=C(O)CSc1cc(NS(=O)(=O)c2cccc3cccnc23)c2ccccc2c1O [MMV218827] | -3.2% |
| Cc1ccc(S(=O)(=O)Nc2cccc3cccnc23)cc1 [MMV233495] | -0.4% |
| O=C(O)c1cc(-c2ccc(Br)cc2)nc2ccc(Cl)cc12 [MMV247764] | -8.6% |
| O=S(=O)(Nc1ccc(O)cc1)c1cccc2cccnc12 [MMV251679] | -4.7% |
| CCN1CCN(Cc2nc3ccc([N+](=O)[O-])cc3c(=O)n2-c2ccccc2F)CC1 [MMV275100] | -8.8% |
| Oc1ccc2[nH]c(-c3ccccc3)nc2c1 [MMV292173] | -15.4% |
| COc1ccc(CNC(=O)C(NS(=O)(=O)c2ccc3nc(C)sc3c2)C(C)C)cc1 (centres unmarked) [MMV303733] | -8.6% |
| COC(=O)Nc1nc2ccccc2[nH]1 [MMV344625] | -13.3% |
| COc1ccc(NC(=O)c2cc3ccccn3n2)cc1 [MMV374187] | -18.8% |
| N=c1n(CCN2CCCCC2)c2ccccc2n1CC(O)COc1ccc(Cl)cc1Cl (centres unmarked) [MMV394033] | -0.8% |
| Oc1cc(-c2cccc3ccccc23)[nH]n1 [MMV422940] | -11.7% |
| O=C(O)C(Cc1c[nH]c2ccccc12)N1C(=O)c2ccccc2C1=O (centres unmarked) [MMV452821] | -16.1% |
| NC(=O)c1ccccc1NC(=O)c1ccc(C(=O)Nc2ccccc2C(N)=O)cc1 [MMV508427] | -9.9% |
| Oc1c(C(Nc2ccccn2)c2ccccc2)ccc2cccnc12 (centres unmarked) [MMV565773] | -30.1% |
| O=C(c1cc(O)nc2ccccc12)N1CCN(c2ccccc2)CC1 [MMV596723] | -7.3% |
| COc1ccc(-n2cnc3cc(NCc4ccco4)ccc32)cc1 [MMV617332] | 22.8% |
| CN(Cc1ccc(C(C)(C)C)cc1)Cc1cccc2ccccc12.Cl [MMV637104] | -30.4% |

| SMILES | % of growth inhibition, Mean |
| --- | --- |
| O=c1[nH]cnc2c1ncn2[C@H]1CC[C@@H](CO)O1 [MMV637306] | -2.1% |
| Nc1nc(F)nc2c1ncn2[C@@H]1O[C@H](CO)[C@@H](O)[C@@H]1O [MMV637413] | -6.9% |
| CCC(C)n1ncn(-c2ccc(N3CCN(c4ccc(OCC5COC(Cn6cncn6)(c6ccc(Cl)cc6Cl)O5)cc4)CC3)cc2)c1=O (centres unmarked) [MMV637528] | -26.8% |
| CC(=O)N1CCN(c2ccc(OC[C@@H]3CO[C@@](Cn4ccnc4)(c4ccc(Cl)cc4Cl)O3)cc2)CC1 [MMV637533] | -5.2% |
| CC1CCc2c(N3CCC(O)CC3)c(F)cc3c(=O)c(C(=O)O)cn1c23 (centres unmarked) [MMV637659] | -19.1% |
| CC(N)C12CC3CC(CC(C3)C1)C2 (centres unmarked) [MMV637855] | 3.7% |
| CC(C)(C)NC(=O)[C@@H]1C[C@@H]2CCCC[C@@H]2CN1C[C@@H](O)[C@H](Cc1ccccc1)NC(=O)[C@H](CC(N)=O)NC(=O)c1ccc2ccccc2n1 [MMV637879] | 25.0% |
| CC1(C)[C@H](C(=O)O)N2C(=O)C[C@H]2S1(=O)=O [MMV637945] | -27.5% |
| C=C(C)[C@@H]1CC[C@]2(C(=O)O)CC[C@]3(C)[C@H](CC[C@@H]4[C@@]5(C)CC[C@H](O)C(C)(C)[C@@H]5CC[C@]43C)[C@@H]12 [MMV638198] | 43.5% |
| COC1CC2CCC(C)C(O)(O2)C(=O)C(=O)N2CCCCC2C(=O)OC(C(C)CC2CCC(OCCO)C(OC)C2)CC(=O)C(C)/C=C(\C)C(O)C(OC)C(=O)C(C)CC(C)/C=C/C=C/C=C/1C (centres unmarked) [MMV639951] | -2.4% |
| O=C(O)c1ccc(-n2nc(-c3ccccc3O)nc2-c2ccccc2O)cc1 [MMV640014] | -17.8% |
| Cn1cncc1[C@@](N)(c1ccc(Cl)cc1)c1ccc2c(c1)c(-c1cccc(Cl)c1)cc(=O)n2C [MMV658803] | -24.4% |
| CC(C)=CCC/C(C)=C\CNCCNC1C2CC3CC(C2)CC1C3 (centres unmarked) [MMV687273] | -3.3% |
| CCc1nc2ccc(Cl)cn2c1C(=O)NCc1ccc(N2CCC(c3ccc(OC(F)(F)F)cc3)CC2)cc1 [MMV687696] | -33.4% |
| C[C@H]1COc2c(N3CCN(C)CC3)c(F)cc3c(=O)c(C(=O)O)cn1c23 [MMV687798] | -8.6% |
| CC(C)N=c1cc2n(-c3ccc(Cl)cc3)c3ccccc3nc-2cc1Nc1ccc(Cl)cc1 [MMV687800] | -1.7% |
| CC[C@H](CO)NCCN[C@H](CC)CO [MMV687801] | -13.2% |
| O=[N+]([O-])c1cn2c(n1)OC[C@@H](OCc1ccc(OC(F)(F)F)cc1)C2 [MMV688755] | 1.3% |
| CC(=O)NC[C@H]1CN(c2ccc(N3CCSCC3)c(F)c2)C(=O)O1 [MMV688756] | -8.2% |
| CC(=O)Oc1ccccc1C(=O)Nc1ncc([N+](=O)[O-])s1 [MMV688991] | 5.4% |
| O=C(NCc1ncc(C(F)(F)F)cc1Cl)c1c(Cl)cccc1Cl [MMV689401] | -36.5% |
| COc1nc2ccc(Br)cc2cc1[C@@H](c1ccccc1)[C@@](O)(CCN(C)C)c1cccc2ccccc12 [MMV689758] | -19.9% |
| Cc1cc(CCCOc2c(C)cc(-c3noc(C(F)(F)F)n3)cc2C)on1 [MMV690467] | -3.4% |

| SMILES | % of growth inhibition, Mean |
| --- | --- |
| COc1ccccc1CN[C@H]1C2CCN(CC2)[C@H]1C(c1ccccc1)c1ccccc1 [MMV690480] | -1.8% |
| Nc1nc(=O)c(Br)c(-c2ccccc2)[nH]1 [MMV690540] | -23.8% |
| CCOCc1nc2c(N)nc3ccccc3c2n1CC(C)(C)O [MMV690547] | -3.7% |
| FC(F)(F)c1cc(C(F)(F)F)c2ccc3nc(-c4nnco4)cn3c2n1 [MMV690555] | -25.6% |
| O=C(NC1CCCc2c1[nH]c1ccc(Cl)cc21)c1ccccn1 (centres unmarked) [MMV690621] | -11.4% |
| COc1cccc(N2CCN(C3=Nc4c(F)cccc4[C@H](CC(=O)O)N3c3cc(C(F)(F)F)ccc3OC)CC2)c1 [MMV690653] | -6.7% |
| O=C(NO)C1(CS(=O)(=O)c2ccc(Oc3ccc(Cl)cc3)cc2)CCOCC1 [MMV690706] | -11.0% |
| CN(C)CCNC(=O)c1cccc2cccnc12 [MMV811071] | -21.7% |
| CCc1ccc(C2CC(C(F)(F)F)n3ncc(C(=O)NCc4ccc(OC)cc4)c3N2)cc1 (centres unmarked) [MMV831201] | -4.6% |
| Nc1cc(-c2nc3ccccc3[nH]2)n[nH]c1=O [MMV975972] | 0.3% |
| O=C1C=C(c2ccccc2)S(=O)(=O)c2ccccc21 [MMV1006203] | -8.8% |
| CC(C)Oc1cccc(NC(=O)c2ccccc2C(F)(F)F)c1 [MMV1009286] | -12.9% |
| O=C(c1ccc(F)cc1)N1CCN2C(=O)c3ccccc3C12c1ccccc1 (centres unmarked) [MMV1165877] | -2.4% |
| CC(C)(C)c1ccc(Oc2ccc(N)cc2)cc1 [MMV1174026] | -12.8% |
| CC(C)(C)c1cc(CCC(=O)N2CCC2)cc(C(C)(C)C)c1O [MMV1229204] | -11.2% |
| O=C(NCc1ccccc1Cl)c1cnc2ccccc2n1 [MMV1230557] | -3.7% |
| O=C(NCc1ccc2c3c(cccc13)C(=O)N2)c1cccs1 [MMV1341773] | -28.3% |
| COc1c(F)c(F)cc2c(=O)c(C(=O)O)cn(C3CC3)c12 [MMV1480967] | -20.4% |
| COc1ccc(NC(=O)CC2Sc3ncnn3C2=O)cc1 (centres unmarked) [MMV1483032] | -13.1% |
| O=S(=O)(Nc1ccc(-n2cccc2)cc1)c1ccc(Cl)c(Cl)c1 [MMV1505642] | -4.1% |
| CC1(C)Cc2c(C#N)c(SCCc3ccccc3)nc(N3CCOCC3)c2CO1 [MMV1549626] | -26.0% |
| CC[C@H](NC(=O)[C@H](C)NC)C(=O)N1C[C@@H](O)C[C@H]1Cc1c(-c2[nH]c3cc(F)ccc3c2C[C@@H]2C[C@H](O)CN2C(=O)[C@H](CC)NC(=O)[C@H](C)NC)[nH]c2cc(F)ccc12 [MMV1557856] | 3.0% |
